Results as given in patent US20250188085A1, “COMPOSITIONS AND METHODS FOR INHIBITION OF RAS” (THERAS, INC., priority 2022, published 2025).
Like-named read-outs stand apart in the source and are kept apart here.

Columns and labels:
[1] = target: T1, GppNHp-loaded KRAS4b (amino acids 1-169) G12C/C118S protein (Homo sapiens, UniProt P01116, C118S/G12C); assay: Covalent cysteine 12 modification by MALDI-TOF MS, GppNHp-loaded KRAS G12C; type: binding; conditions: 15 minutes reaction time point
T1 construct: KRAS4b (amino acids 1-169) G12C/C118S protein; made in house
Description: (§1) Reaction: 1 μM of GppNHp-, GTP-, or GDP-loaded KRAS4b (amino acids 1-169) G12C/C118S protein (produced in-house by Protein Expression Laboratory, FNLCR/Leidos Biomed) in 20 mM 4-(2-hydroxyethyl)-1-piperazineethanesulfonic acid (HEPES) buffer containing 150 mM NaCl, 1 mM MgCl2, pH 7.3 was prepared freshly before assay. Ten-μL aliquots of protein were dispensed onto low volume 384-well plate, then 375 nL DMSO, and 25 nL of tested compounds from 5 mM DMSO stocks were added to appropriate wells using ECHO 555 acoustic liquid handler (Labcyte Inc.). For each reaction/assay, three blanks were prepared by mixing 10 μL of protein solution with 400 nL DMSO. The contents of the wells were carefully mixed by aspiration, and then each plate was sealed with an adhesive cover, centrifuged at 2000 g for 1 minute, and kept in the dark at room temperature until 5 min, 15 min, 30 min, or 2 h collections.
(§2) Target pretreatment: Before each assay MALDI target (Bruker MPT 384 ground steel BC) was pre-treated by pipetting on each spot 0.75 μL of saturated sinapinic acid in acetonitrile (ACN).
(§3) Sample preparation: At collection time point, 2 μL of reaction mixtures were pipetted out into 20 μL MALDI matrix solution (saturated solution of sinapinic acid in 1:1 ACN:water solution containing 0.75% trifluoroacetic acid (TFA)) deposited on 384 well polypropylene plate. Resulting solution was mixed by aspiration, centrifuged at 2000 g for 1 minute, then 1 μL aliquots were dispensed on pre-treated MALDI target using Beckman Coulter Biomek FXP 96/384-Span-8 Laboratory Automation Workstation. Finally, the MALDI target was dried under mild vacuum to produce spots with fine crystalline structure.
(§4) Measurements: MALDI-TOF measurements were performed on a Bruker Daltonics rapiflex Tissuetyper TOF-TOF mass spectrometer using linear mode and mass range from 18.6 to 21.6 kDa. Detector gain was set to 3.3× (483 V), sample rate to 5 GS/s, real time smoothing to medium (175 MHz), laser smart beam pattern was set to: “MS Thin Layer M5”, and the laser frequency was 10000 Hz. Spectra were automatically collected using custom Auto Xecute method. Laser power was auto adjusted using fuzzy control. The peak selection range was set to be between 19000 and 21500 Da. Peak evaluation uses half width parameter set to be smaller than 40 Da for processed spectrograms (centroid peak detection; smoothed by SavitzkyGolay algorithm using 7 m/z width and 2 cycles; baseline was subtracted using median algorithm with flatness 1 and median level 0.01). Fuzzy control used Proteins/Oligonucleotides protocol with minimum half width 1/10 times above threshold. Up to 40000 satisfactory shots were collected in 10000 shot steps. Dynamic termination was implemented to finish data collection when peak signal/noise ratio was reaching value of 50.
(§5) Spectra processing: Spectra were smoothed by SavitzkyGolay algorithm using 7 m/z width and three cycles. Centroid peak detection algorithm was used with signal to noise threshold set to 6, relative intensity threshold 4%, peak width 10 m/z and median baseline subtraction using flatness of 1 and median level of 0.01. Peak intensity and area under the peak were evaluated and recorded for all peaks between 19,300 Da and 21,550 Da.
(§6) Calculation of percent modification: Percent modification was calculated as a ratio of peak height for protein modified by compound to sum of peak height of remaining protein plus peak height for protein modified by compound. If multiple modifications were observed each was calculated as a ratio of peak height for given modification versus sum of peak heights for all observed protein species. Data reported in Table 5 are from 15 minutes reaction time point.

[2] = target: T2, GDP-loaded KRAS4b (amino acids 1-169) G12C/C118S protein (Homo sapiens, UniProt P01116, C118S/G12C); assay: Covalent cysteine 12 modification by MALDI-TOF MS, GDP-loaded KRAS G12C; type: binding; conditions: 15 minutes reaction time point
T2 construct: KRAS4b (amino acids 1-169) G12C/C118S protein; made in house
Description: as §1, §2, §3, §4, §5, §6

[3] = target: T3, Avi-KRAS G12C (1-169) GppNHp/RAF1 RBD-3×FLAG (52-151) (Homo sapiens, UniProt P01116, G12C); assay: Raf1 RBD-KRAS G12C-GppNHp disruption (protein:protein interaction HTRF assay); type: biochemical
T3 construct: Avi-KRAS G12C (1-169) GppNHp/RAF1 RBD-3×FLAG (52-151)
Description: A protein: protein (PPI) interaction Homogeneous Time Resolved Fluorescence (HTRF) assay was used to determine the effectiveness of compounds of the present disclosure in disrupting KRAS G12C protein and effector (RAF1 or PIK3CA) binding.
The HTRF assay used the following reagents and proteins: 50 nM Avi-KRAS G12C Q25A (1-169) GppNHp/3×FLAG-PI3K CA (157-299); 50 nM Avi-KRAS G12C (1-169) GppNHp/RAF1 RBD-3×FLAG (52-151); 35 nM Avi-PI3K RBD-3×FLAG; Assay Buffer: 50 mM Tris pH 7.5, 100 mM NaCl, 5 mM MgCl2, 0.1% BSA, 0.01% Tween 20, 10% DMSO; Bead Buffer: 50 mM Tris pH 7.5, 0.01% Tween 20; Assay volume: 20 μL (384 well plate-low volume format); and Compound titration: 30-0.02 μM, 3× dilution series.
The HTRF assay employed the following protocol:
Compounds were dispensed in assay plate (384-well, Grenier Bione #784075) using Echo (model 555) with dose response settings: 200 nL final volume, titration from 100 μM as a 10-point dilution series. KRAS proteins were prepared in assay buffer, and dispensed on plates, 5 μL per well, then incubated for 1 h at room temperature, with 700 rpm shaking. RAF1 RBD and PI3K RBD CA were prepared in assay buffer, dispensed onto plates, 5 μL per well, and then incubated for 1 h at room temperature, with 700 rpm shaking. Reagent mix was then prepared and dispensed on plates, 10 μL per well, and then incubated for 1 h at room temperature, with 700 rpm shaking.
Plates were analyzed on an Envision plate reader using the following setting: Excitation 320 nm, Bandwidth 75 nm; Emission 615 nm, Bandwidth 85 nm; Gain 100%; Flashes 100; Lag 60 μs. Data was reported as percentage of activity, with DMSO as 100%. Data was plotted and analyzed using Prism 8.

pERK in NCI-H358 cells = assay: Cell-based pERK HTRF assay; conditions: 30 min incubation, read-out: pERK in NCI-H358 cell inhibition IC50
Description: pERK assays (Perkin Elmer) were used to determine the effectiveness of compounds of the present disclosure in disrupting KRAS G12C protein/effector signaling in cells.
On Day 1, cells (NCI-H358) were seeded into 96-well plates at 4×10^4 cells/well in complete growth media (RPMI, 10% FBS).
On Day 2, cells were treated with compounds at 0.25% DMSO. The source plate was created with compounds diluted in media at 5-fold the final assay concentration. The compounds were run in a 9-point concentration curve starting at 75 μM, with a 3-fold dilution between concentrations. 20 μL was transferred onto the cell plates (final volume in wells was 100 μL). Plates were harvested after 30 min incubation by aspirating media and adding kit-supplied 1× supplemented lysis buffer to all wells (75 μl per well). Plates were then placed on a plate shaker and incubated at 850 rpm for an additional 30 min.
Antibody mixture solution was prepared by diluting aliquoted d2 and Eu Cryptate antibodies 1:20 in kit supplied detection buffer, then mixed the diluted antibodies solutions (1:1 v:v). 4 μL of this solution was then added to a 384-well detection plate (Perkin Elmer; 6008230).
Samples were homogenized by pipetting up and down and then transferred (16 μL of cell lysates) from the 96-well cell culture plate to two wells of the HTRF 384-well detection plate containing the antibody solution. Plates were centrifuged (524 g for Imin) and allowed to incubate between 4 and 24 h at room temperature. Maximum signal is reached after 4 h incubation time and remains stable over a period of 24 hours. Therefore, readings can be made between 4 and 24 h of incubation. Plates were centrifuged again (524 g for Imin) and analyzed on the En Vision plate reader using the following settings: Excitation 320 nm, Bandwidth 75 nm; Emission 615 nm, Bandwidth 85 nm; Gain 100%; Flashes 100; Lag 60 μs.

Structure (SMILES) | GppNHp-KRAS G12C percent of modification [1] | GDP-KRAS G12C percent of modification [2] | IC50 [3] | IC50 (pERK in NCI-H358 cells; Homo sapiens, NCI-H358, 0.5 h) | IC50 (pERK in NCI-H358 cells)
C=CC(=O)N1CC(Oc2nc(OC[C@@H]3C[C@@H](F)CN3C)nc3c(F)c(-c4ccc(F)c5sc(N)nc45)c(C(F)(F)F)cc23)C1 [Compound 23] | C (10%≤modification <50%) | B (50≤percent of modification <70%) | 500 to 5000 nM | 100 to 1000 nM | 
C=CC(=O)N1CCC[C@@H](Oc2nc(OC[C@@H]3C[C@@H](F)CN3C)nc3c(F)c(-c4ccc(F)c5sc(N)nc45)c(C(F)(F)F)cc23)C1 (atropisomer, axis not shown) [Compound 20] | D (percent of modification <10%) | B (50≤percent of modification <70%) | 5000 to 20000 nM | > 1000 nM | 
C=CC(=O)N1C[C@H](Oc2nc(OC[C@@]34CCCN3C[C@H](F)C4)nc3c(F)c(-c4ccc(F)c5sc(N)nc45)c(C(F)(F)F)cc23)C[C@@H]1C (atropisomer, axis not shown) [Compound 33] | D (percent of modification <10%) | D (percent of modification <10%) | 5000 to 20000 nM |  | > 1000 nM
C=CC(=O)N1C[C@H](Oc2nc(OC[C@@]34CCCN3C[C@H](F)C4)nc3c(F)c(-c4ccc(F)c5sc(N)nc45)c(C(F)(F)F)cc23)C[C@H]1C (atropisomer, axis not shown) [Compound 38] | D (percent of modification <10%) | D (percent of modification <10%) | 500 to 5000 nM |  | 100 to 1000 nM
C=CC(=O)N1CC[C@H](Oc2nc(OC[C@@]34CCCN3C[C@H](F)C4)nc3c(F)c(-c4ccc(F)c5sc(N)nc45)c(Cl)cc23)C1 (atropisomer, axis not shown) [Compound 4] | D (percent of modification <10%) | D (percent of modification <10%) | > 20000 nM | > 1000 nM | 
C=CC(=O)N1C[C@@H](C)[C@@H](Oc2nc(OC[C@@]34CCCN3C[C@H](F)C4)nc3c(F)c(-c4ccc(F)c5sc(N)nc45)c(C(F)(F)F)cc23)C1 (atropisomer, axis not shown) [Compound 39] | C (10%≤modification <50%) | C (10%≤modification <50%) | 500 to 5000 nM |  | 100 to 1000 nM
C=CC(=O)N1CC[C@@H](Oc2nc(OC[C@@H]3CC4(CC4)CN3C)nc3c(F)c(-c4ccc(F)c5sc(N)nc45)c(C(F)(F)F)cc23)C1 (atropisomer, axis not shown) [Compound 25] | D (percent of modification <10%) | D (percent of modification <10%) | 5000 to 20000 nM |  | > 1000 nM
C=CC(=O)N1CC(Oc2nc(OC[C@@]34CCCN3C[C@H](F)C4)nc3c(F)c(-c4ccc(F)c5sc(N)nc45)c(C(F)(F)F)cc23)[C@@H](C)C1 (stereo partly shown) [Compound 34] | B (50≤percent of modification <70%) | A (percent of modification ≥70%) | ≤ 500 nM | ≤ 100 nM | 
C=CC(=O)N1CC[C@@H](Oc2nc(OC[C@@H]3C[C@@H](OC)CN3C)nc3c(F)c(-c4ccc(F)c5sc(N)nc45)c(C(F)(F)F)cc23)C1 (single isomer, unassigned) [Compound 15] | D (percent of modification <10%) | D (percent of modification <10%) | > 20000 nM |  | > 1000 nM
C=CC(=O)N1CC[C@@H](Oc2nc(OC[C@@]34CCCN3C[C@H](F)C4)nc3c(F)c(-c4ccc(F)c5sc(N)nc45)c(C(F)(F)F)cc23)[C@H]1C [Compound 29, 1-((2R,3R)-3-((7-(2-amino-7-fluorobenzo[d]thiazol-4-yl)-8-fluoro-2-(((2R,7aS)-2-fluorotetrahydro-1H-pyrrolizin-7a (5H)-yl)methoxy)-6-(trifluoromethyl)quinazolin-4-yl)oxy)-2-methylpyrrolidin-1-yl) prop-2-en-1-one] | A (percent of modification ≥70%) | A (percent of modification ≥70%) | ≤ 500 nM | ≤ 100 nM | 
